The values that follow come from ChEMBL document CHEMBL1151930, “Physicochemical determinants of human renal clearance” (J Med Chem, 2009).

Series [1] is filed under the species Homo sapiens. The following applies: in vivo.
A further series can be described thus: clinical. The following applies: human, in vivo.
Series [2] in a line: (§1) Total body clearance in human. The following applies: in vivo.
The species named for series [3] is Homo sapiens. The description is as §1. The following applies: in vivo.

In the series filed under Homo sapiens [1], `CCc1cccc2cc(C(O)CNC(C)(C)C)oc12` (stereo not drawn) [BUFURALOL] returned a CL_renal of 0 mL/min/kg.

Regarding `COCc1c(C(C)C)nc(C(C)C)c(/C=C/[C@@H](O)C[C@@H](O)CC(=O)O)c1-c1ccc(F)cc1` [CERIVASTATIN], the CL_renal in the series listed under Homo sapiens [1] stood at 0 mL/min/kg.

As a reminder, the clearance is the volume of plasma or blood freed of the substance per unit of time. With `CC[C@H]1OC(=O)[C@H](C)[C@@H](O[C@H]2C[C@@](C)(OC)[C@@H](O)[C@H](C)O2)[C@H](C)[C@@H](O[C@@H]2O[C@H](C)C[C@H](N(C)C)[C@H]2O)[C@](C)(O)C[C@@H](C)CN(C)[C@H](C)[C@@H](O)[C@]1(C)O` [AZITHROMYCIN], in “clinical”, the CL renal was 0.45 mL/min/kg. Besides, the clearance in series [2] was 10 mL/min/kg.

As for `Cc1ncc2n1-c1ccc(Cl)cc1C(c1ccccc1F)=NC2` [MIDAZOLAM], the CL_renal in the series listed under Homo sapiens [1] came out at 0 mL/min/kg.

`CC1=NS(=O)(=O)c2cc(Cl)ccc2N1` [DIAZOXIDE]: in “clinical”, the CL renal turned out to be 0.06 mL/min/kg. Further, the clearance in series [2] was determined as 0.06 mL/min/kg.

Take `CCN(CC)CCNC(=O)c1ccc(NC(C)=O)cc1` [ACECAINIDE]: the CL renal in the series “clinical” is 3.2 mL/min/kg. In series [2], the clearance turned out to be 4 mL/min/kg.

`Cc1ccnc2c1NC(=O)c1cccnc1N2C1CC1` [NEVIRAPINE]: the CL renal in “clinical” is 0.01 mL/min/kg. The clearance in series [2] came out at 0.3 mL/min/kg.

With `O=C(NCCN1CCOCC1)c1ccc(Cl)cc1` [MOCLOBEMIDE], the CL renal in the series “clinical” worked out at 0.05 mL/min/kg. In series [2], this compound gave a clearance of 10 mL/min/kg.

In series [2], `CN1C(C(=O)Nc2ccccn2)=C(O)c2sccc2S1(=O)=O` [TENOXICAM] had a clearance of 0.03 mL/min/kg. In the series listed under Homo sapiens [1], this compound had a CL_renal of 0 mL/min/kg.

In the case of `CCCn1c(=O)[nH]c(=O)c2[nH]cnc21` [ENPROFYLLINE], in “clinical”, the CL renal is 3.56 mL/min/kg. The clearance in series [2] stood at 4 mL/min/kg.

Turning to `CCCCS(=O)(=O)N[C@@H](Cc1ccc(OCCCCC2CCNCC2)cc1)C(=O)O` [TIROFIBAN], the CL renal in “clinical” came to 1.59 mL/min/kg. In addition, in the series filed under Homo sapiens [3], the CL worked out at 4.3 mL/min/kg.

The compound `N[C@@H](CC(=O)N1CCn2c(nnc2C(F)(F)F)C1)Cc1cc(F)c(F)cc1F` [SITAGLIPTIN] registered a CL renal in the series “clinical” of 4.74 mL/min/kg. Further, the clearance in series [2] is 6 mL/min/kg.

In turn, `Nc1nc2c(c(=O)[nH]1)N(C=O)C(CNc1ccc(C(=O)N[C@@H](CCC(=O)O)C(=O)O)cc1)CN2` (stereo partly drawn) [LEUCOVORIN] registered a CL renal in “clinical” of 0.8 mL/min/kg. In series [2], this compound yielded a clearance of 5.3 mL/min/kg.
